Test results taken from PMC10166914, “GTN057, a komaroviquinone derivative, induced myeloma cells' death in vivo and inhibited c‐MET tyrosine kinase” (Cancer Medicine, 2023).
Values joined by “and” are separate entries in the source; they are usually repeats but may differ in a detail not shown here. Equal entries are not always repeated.

Assays:
[1] = Toxicity assessment in ICR mice; format: in vivo
From the text: For the toxicity assessment of GTN057 in vivo, we intraperitoneally (i.p.)‐injected male 5‐week‐old ICR mice (CLEA, […]) dissolved in 1% Tween® 80 + 10% DMSO in saline on 2 consecutive days of every 3‐day period for 2 weeks. The mice were weighed every week. Peripheral blood was collected with a heparinized hematocrit tube (Terumo, Tokyo) from the tail vein of each mouse every week and was stained with Türk's solution (Merck). The numbers of leukocytes and neutrophils were counted using light microscopy.

[2] = tested on: KMS11 cells; assay: In vivo tumor growth assay, KMS11 xenograft; parameters: species or system ICR/SCID mice; details: 100 mg/kg i.p., after 2 weeks of treatment, KMS11-xenografted SCID mice
Description: For the in vivo tumor growth assay, we injected 3 × 10^7 cells of KMS11 cells subcutaneously into the flank of male 5‐week‐old ICR/SCID mice. When the tumors reached 100 mm^3, we injected (i.p.) 20 or 100 mg/kg of GTN057 solubilized in 1% Tween® 80 + 10% DMSO in saline twice every 3 days for 2 weeks. We measured the tumor volumes every day for 2 weeks as the length × width^2 × 0.52.[21]

[3] = Pharmacokinetic study, LC-MS/MS of plasma; format: in vivo, ICR mice
Description: For the pharmacokinetic study, 0 or 100 mg/kg of GTN057 (1% Tween® 80 + 10% DMSO in saline) was injected (i.p.) into male 5‐week‐old ICR mice. Peripheral blood samples were taken using heparinized hematocrit tubes from the tail vein of each mouse at 0, 15, and 30 min and 1, 2, 4, and 24 h. The blood samples were applied to centrifugation (1100 × g, 15 min at 4°C) and we then collected the supernatant plasma. […] (Wako) and MeOH (Kanto, Tokyo) for LC–MS/MS (liquid chromatography–tandem mass spectrometry) measurements were mixed in a 1:1 ratio, and verapamil hydrochloride (an internal standard substance) was dissolved to the final concentration of 120 ng/mL to prepare a deproteinizing agent. We diluted the blood samples four times with this deproteinizing agent. After 15 min on ice, each deproteinized plasma sample was centrifuged (9100 × g, 10 min, 4°C). The supernatants were collected and used for the LC–MS/MS analyses.
All compounds including GTN057 were analyzed with a mass spectrometer (AB SCIEX) coupled to an HPLC (high‐performance liquid chromatography) system (Shimadzu). The peptides were separated with the use of an Atlantis® dC18, 3‐μm, 100 Å column (Waters). The solvent composition was 15% for solution A (100 mM CH3COONH4) and 85% for solution B (CH3OH). The HPLC measurement settings were as follows. Constant flow rate: 0.2 mL/min, column temperature: 40°C. The MS settings were: spray voltage, 5500 V; turbo heater temperature, 300°C.

[4] = molecular target: T1, c-MET (Homo sapiens, UniProt P08581); assay: Western blot, dose-dependent inhibition of c-MET phosphorylation in KMS34 cells; format: cell-based; details: Western blot densitometry, read-out: 50% inhibition of the phosphorylation of c-MET
T1 construct: endogenous in cells; host or cells: KMS34 multiple myeloma cells
Description: (§1) MM cells (4 × 10^5 cells/mL) were incubated with 0–20 μM GTN057 for 12 h. The cells were then co‐cultured with 0–50 ng/mL of hepatocyte growth factor (HGF) (PeproTech, London) or 0–20 ng/mL of fibroblast growth factor (FGF)‐2 (PeproTech) with 1 unit/mL of heparin in RPMI containing 4% dialyzed FCS (Gibco) for the KMS11 and KMS34 cells and 10% dialyzed FCS for the KMS21 cells for 15 min at RT (room temperature). A549 cells were co‐cultured with 0–50 ng/mL of epidermal growth factor (EGF) (PeproTech) in Eagle's MEM containing 4% dialyzed FCS for 15 min at RT. […]
(§2) The protein concentrations were measured using a BCA Protein Assay Kit (Thermo Fisher Scientific). […]
(§3) Antibodies against phospho‐STAT3 (Tyr705), phospho‐Akt (Ser473), p44/42 MAPK (Erk 1/2), phosphor‐p44/42 MAPK (Thr202/Tyr 204), and phospho‐c‐Met (Tyr1234/1235) (all from Cell Signaling Technology, Danvers, MA) or STAT3, Akt, c‐Met, and β‐actin (all from Santa Cruz Biotechnology, Santa Cruz, CA) or phospho‐c‐Met (Tyr1230/1234/1235) (Biosource, Camarillo, CA for KMS34 cells in Figure 3A) were each used at 1:1000 dilution. […] The Western blotting signals were detected by enhanced ECL chemiluminescence (Amersham). The signal intensity of each band was quantified densitometrically with ImageJ software (ver. 1.48, U.S. National Institutes of Health).

[5] = tested on: EGF stimulated ERK1/2, STAT3, AKT1 phosphorylation; assay: Western blot, EGF-stimulated signaling in A549 cells; format: cell-based, human; details: EGF stimulation
Description: as §1, §2, §3

[6] = male, mouse, ip, single i.p. injection 100 mg/kg, ICR mice, plasma

T1 sequence (P08581 25-1390): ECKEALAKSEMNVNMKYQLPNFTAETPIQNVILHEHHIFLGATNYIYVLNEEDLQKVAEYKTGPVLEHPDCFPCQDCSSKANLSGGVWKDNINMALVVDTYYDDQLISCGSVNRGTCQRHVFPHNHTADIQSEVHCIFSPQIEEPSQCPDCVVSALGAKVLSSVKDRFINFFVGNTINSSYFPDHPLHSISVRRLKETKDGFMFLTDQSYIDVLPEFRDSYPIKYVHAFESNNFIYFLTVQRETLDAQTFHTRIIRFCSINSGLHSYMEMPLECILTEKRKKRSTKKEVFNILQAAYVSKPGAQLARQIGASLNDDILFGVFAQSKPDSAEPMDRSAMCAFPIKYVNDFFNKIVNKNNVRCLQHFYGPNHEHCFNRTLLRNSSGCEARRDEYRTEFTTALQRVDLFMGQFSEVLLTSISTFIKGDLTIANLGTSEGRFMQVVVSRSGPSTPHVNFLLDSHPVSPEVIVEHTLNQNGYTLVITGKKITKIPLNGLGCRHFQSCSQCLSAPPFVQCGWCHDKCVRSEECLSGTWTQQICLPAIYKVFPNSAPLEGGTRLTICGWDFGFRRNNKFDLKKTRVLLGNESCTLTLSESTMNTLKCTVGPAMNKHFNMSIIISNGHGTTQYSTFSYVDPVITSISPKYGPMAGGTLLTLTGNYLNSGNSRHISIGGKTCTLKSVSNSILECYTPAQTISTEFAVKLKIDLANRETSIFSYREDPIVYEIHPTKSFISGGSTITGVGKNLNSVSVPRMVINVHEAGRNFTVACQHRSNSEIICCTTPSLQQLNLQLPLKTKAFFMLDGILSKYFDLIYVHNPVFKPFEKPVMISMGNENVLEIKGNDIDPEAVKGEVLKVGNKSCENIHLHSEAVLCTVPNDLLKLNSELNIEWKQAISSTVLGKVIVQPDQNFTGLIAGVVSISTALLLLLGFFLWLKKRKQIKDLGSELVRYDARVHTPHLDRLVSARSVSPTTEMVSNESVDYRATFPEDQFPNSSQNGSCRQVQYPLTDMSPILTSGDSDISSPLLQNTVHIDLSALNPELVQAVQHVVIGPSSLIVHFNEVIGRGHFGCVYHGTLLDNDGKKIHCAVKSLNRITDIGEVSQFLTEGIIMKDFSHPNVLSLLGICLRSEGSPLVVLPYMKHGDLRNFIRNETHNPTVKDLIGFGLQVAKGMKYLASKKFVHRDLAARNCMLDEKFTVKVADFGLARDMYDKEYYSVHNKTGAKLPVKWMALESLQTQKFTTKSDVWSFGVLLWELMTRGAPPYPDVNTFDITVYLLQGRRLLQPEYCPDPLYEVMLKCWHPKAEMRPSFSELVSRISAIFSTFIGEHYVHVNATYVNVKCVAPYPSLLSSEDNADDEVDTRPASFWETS

SMILES: COc1c(OC(C)=O)c2c(c(O)c1C(C)C)C(=O)CC1C(C)(C)CCC[C@]1(O)C2 (stereo partly drawn) [GTN057]
- Neutropenia and systemic toxicity ([1]; 100 mg/kg, 2 days of each 3-day period over 2 weeks, mice): no significant neutropenia or systemic toxicity
- Body weight and leukocyte count ([1]; 40 or 100 mg/kg i.p., 2 consecutive days of each 3-day period for 2 weeks, ICR mice): neither a loss of body weight nor leukocytopenia
- Maximal tolerated dose ([1]; i.p., 2 days of every 3-day period, mice): ≥ 100 mg/kg
- Average tumor volume [2]: 0.71 ± 0.17 cm^3
- Average tumor weight [2]: 0.98 ± 0.16 g
- Cmax [3, 6]: 790 ng/mL and 1.95 µM
- Tmax [3, 6]: 30 min
- Degradation in plasma ([3]; plasma, LC-MS/MS, preliminary data): immediately dehydrated (m/z 387) or deacetylated (m/z 363) in plasma
- plasma disappearance half-time ([3]; single i.p. injection 100 mg/kg, ICR mice): 110 min
- Presence in blood at 24 h post-injection ([3]; single i.p. injection 100 mg/kg, ICR mice, 24 h): almost completely disappeared
- IC50 [4]: 35.9 µM
- ERK1/2, STAT3, AKT1 phosphorylation levels [5]: not altered
